Data as given in the supplement of paper PMC10627819.

How the values were obtained:
[1] = tested on: S. aureus DSM 20231; assay: fitness (endpoint OD595 vs no drug) (fraction); higher = more growth
Procedure, shortened: (§1)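 In 384-well plates at 37 °C, cultures began at OD595 0.01 in 30 µl, with 55 µl used for S. pneumoniae. OD595 readings every 30 min for 14 h were corrected by the first reading. Fitness divides the stationary-phase transition optical density by the robust mean of no-drug control wells. The result is capped at 1.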

[2] = tested on: S. aureus Newman; assay: as above
Procedure, shortened: as §1

[3] = tested on: S. pneumoniae D39V; assay: as above
Procedure, shortened: as §1

[4] = tested on: B. subtilis 168; assay: Bliss interaction score (quartile over a dose matrix) (fitness difference); higher = more antagonism (negative = synergy)
Procedure, shortened: (§2)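 Fitness was derived from optical density at entry into stationary phase, divided by the robust mean of the no-drug wells on the same plate. That reading was taken as OD595, and the ratio was capped at 1. Single-drug fitness was inferred from the combination data. The Bliss score, observed fitness minus the expected product of single-drug fitness, was summarised as quartiles over technical, biological and donor/recipient replicates.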

[5] = tested on: S. aureus DSM 20231; assay: as above
Procedure, shortened: as §2

[6] = tested on: S. aureus Newman; assay: as above
Procedure, shortened: as §2

[7] = tested on: S. pneumoniae D39V; assay: as above
Procedure, shortened: as §2
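Wherever Bliss interaction score (quartile over a dose matrix) is given: first quartile when negative (synergy) and third quartile when positive (antagonism).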

CC1(C)S[C@@H]2[C@H](NC(=O)[C@H](N)c3ccc(O)cc3)C(=O)N2[C@H]1C(=O)O [Amoxicillin] + CN1C2=CC=CC=C2N=C3C1=CC=CC3=O [Pyocyanin]
Conditions | fitness
[1], first compound 0.0625 µg/mL, partner 1.25 µg/mL | 0.673
[1], first compound 0.0625 µg/mL, partner 2.5 µg/mL | 0.635
[1], first compound 0.0625 µg/mL, partner 5 µg/mL | 0.435
[1], first compound 0.125 µg/mL, partner 1.25 µg/mL | 0.418
[1], first compound 0.125 µg/mL, partner 2.5 µg/mL | 0.417
[1], first compound 0.125 µg/mL, partner 5 µg/mL | 0.254
[1], first compound 0.25 µg/mL, partner 1.25 µg/mL | 0.216
[1], first compound 0.25 µg/mL, partner 2.5 µg/mL | 0.195
[1], first compound 0.25 µg/mL, partner 5 µg/mL | 0.121
[2], first compound 0.0625 µg/mL, partner 1.25 µg/mL | 0.829
[2], first compound 0.0625 µg/mL, partner 2.5 µg/mL | 0.71
[2], first compound 0.0625 µg/mL, partner 5 µg/mL | 0.486
[2], first compound 0.125 µg/mL, partner 2.5 µg/mL | 0.767
[2], first compound 0.125 µg/mL, partner 5 µg/mL | 0.374
[3], first compound 0.0008 µg/mL, partner 0.325 µg/mL | 0.992
[3], first compound 0.0008 µg/mL, partner 0.65 µg/mL | 0.987
[3], first compound 0.0015 µg/mL, partner 0.325 µg/mL | ≥ 1
[3], first compound 0.0015 µg/mL, partner 0.65 µg/mL | 0.978
[3], first compound 0.0015 µg/mL, partner 1.3 µg/mL | 0.935
[3], first compound 0.003 µg/mL, partner 0.325 µg/mL | ≥ 1
[3], first compound 0.003 µg/mL, partner 0.65 µg/mL | 0.974
[3], first compound 0.003 µg/mL, partner 1.3 µg/mL | 0.945

one replicate
Conditions | fitness
[1], first compound 0.5 µg/mL, partner 1.25 µg/mL | 0.0229
[1], first compound 0.5 µg/mL, partner 2.5 µg/mL | 0.0134
[1], first compound 0.5 µg/mL, partner 5 µg/mL | 0.0115
[3], first compound 0.0008 µg/mL, partner 1.3 µg/mL | 0.907
[3], first compound 0.006 µg/mL, partner 0.325 µg/mL | 0.624
[3], first compound 0.006 µg/mL, partner 0.65 µg/mL | 0.63
[3], first compound 0.006 µg/mL, partner 1.3 µg/mL | 0.734

Conditions | Bliss interaction score
[4] | -0.0439
[5] | 0.0915
[6] | 0.0587
[7] | 0.0791

CC1(C)S[C@@H]2[C@H](NC(=O)[C@H](N)c3ccc(O)cc3)C(=O)N2[C@H]1C(=O)O [Amoxicillin] + CN(N=O)C(=O)N[C@@H](C=O)[C@@H](O)[C@H](O)[C@H](O)CO [Streptozotocin]
fitness
Conditions | first compound 0.0008 µg/mL | first compound 0.0015 µg/mL | first compound 0.003 µg/mL | first compound 0.0625 µg/mL | first compound 0.125 µg/mL | first compound 0.25 µg/mL
[1], partner 0.15 µg/mL | – | – | – | 0.434 | 0.362 | 0.0212
[1], partner 0.3 µg/mL | – | – | – | 0.496 | 0.286 | 0.0296
[1], partner 0.6 µg/mL | – | – | – | 0.41 | 0.234 | 0.0211
[2], partner 0.15 µg/mL | – | – | – | 0.769 | 0.736 | 0.753
[2], partner 0.3 µg/mL | – | – | – | 0.669 | 0.677 | 0.64
[2], partner 0.6 µg/mL | – | – | – | 0.523 | 0.524 | 0.491
[3], partner 1.2 µg/mL | 0.935 | 0.866 | 0.844 | – | – | –
[3], partner 2.4 µg/mL | 0.963 | 0.945 | 0.929 | – | – | –
[3], partner 4.8 µg/mL | 0.928 | 0.877 | 0.812 | – | – | –

fitness, one replicate
Conditions | partner 0.15 µg/mL | partner 0.3 µg/mL | partner 0.6 µg/mL | partner 1.2 µg/mL | partner 2.4 µg/mL | partner 4.8 µg/mL
[1], first compound 0.5 µg/mL | 0.0024 | 0.0025 | 0 | – | – | –
[3], first compound 0.006 µg/mL | – | – | – | 0.376 | 0.405 | 0.365

Conditions | Bliss interaction score
[4] | 0.0362
[5] | -0.0844
[6] | -0.0299
[7] | -0.0885
